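At the GI50, growth is halved. TGI: total growth inhibition.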
How the values were obtained:
Experiment in all cases: NCI-60 cell line screen, 384-well format
NCI/ADR-RES ovarian = tested on: NCI/ADR-RES ovarian
SN12C renal = tested on: SN12C renal
MCF7 breast = tested on: MCF7 breast
HCT-15 colon = tested on: HCT-15 colon
SR leukemia = tested on: SR leukemia
RXF 393 renal = tested on: RXF 393 renal
OVCAR-3 ovarian = tested on: OVCAR-3 ovarian
UO-31 renal = tested on: UO-31 renal
ACHN renal = tested on: ACHN renal
HL-60(TB) leukemia = tested on: HL-60(TB) leukemia

CC[C@@H](C(=O)[C@@H](C)[C@@H](O)[C@H](C)[C@@H]1O[C@@H]([C@@H](CC)C(=O)O)CC[C@@H]1C)[C@H]1O[C@]2(C=C[C@@H](O)[C@]3(CC[C@@](C)([C@H]4CC[C@](O)(CC)[C@H](C)O4)O3)O2)[C@H](C)C[C@@H]1C
GI50 (NCI/ADR-RES ovarian): 167 nM | TGI (NCI/ADR-RES ovarian): 2110 nM | GI50 (SN12C renal): < 10 nM | TGI (SN12C renal): 1760 nM | GI50 (MCF7 breast): < 10 nM | TGI (MCF7 breast): 278 nM | GI50 (HCT-15 colon): 299 nM | TGI (HCT-15 colon): 1190 nM | GI50 (SR leukemia): < 10 nM | TGI (SR leukemia): < 10 nM | GI50 (RXF 393 renal): < 10 nM | TGI (RXF 393 renal): < 10 nM | GI50 (OVCAR-3 ovarian): < 10 nM | TGI (OVCAR-3 ovarian): < 10 nM | GI50 (UO-31 renal): 157 nM | TGI (UO-31 renal): 759 nM | GI50 (ACHN renal): 416 nM | TGI (ACHN renal): 13600 nM | GI50 (HL-60(TB) leukemia): < 10 nM | TGI (HL-60(TB) leukemia): < 10 nM

— PubChem BioAssay (NCI)
